Experimental data taken from PubChem BioAssay (NCI).
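Cultured in 96-well plates, cells were exposed to test compound for 48 hours across five concentrations. GI50 marks 50% less growth. The concentration for full growth arrest is given as TGI.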

Assays:
Assay in all cases: growth of human tumour cells (NCI), 48 h
[1] = tested on: SW-620 colon
[2] = tested on: SN12C renal
[3] = tested on: M14 melanoma
[4] = tested on: TK-10 renal
[5] = tested on: HCC-2998 colon
[6] = tested on: COLO 205 colon
[7] = tested on: 786-0 renal
[8] = tested on: UACC-257 melanoma
[9] = tested on: CAKI-1 renal
[10] = tested on: MDA-MB-435
[11] = tested on: HCT-15 colon
[12] = tested on: HCT-116 colon
[13] = tested on: HOP-92 NSCLC
[14] = tested on: HT29 colon
[15] = tested on: KM12 colon
[16] = tested on: SF-295 CNS
[17] = tested on: MOLT-4 leukemia
[18] = tested on: A549 NSCLC
[19] = tested on: T-47D breast
[20] = tested on: EKVX NSCLC
[21] = tested on: SF-539 CNS
[22] = tested on: K-562 leukemia
[23] = tested on: RXF 393 renal
[24] = tested on: UACC-62 melanoma
[25] = tested on: RPMI-8226 leukemia
[26] = tested on: CCRF-CEM leukemia
[27] = tested on: OVCAR-4 ovarian
[28] = tested on: SNB-75 CNS
[29] = tested on: MCF7 breast
[30] = tested on: PC-3 prostate
[31] = tested on: HOP-62 NSCLC
[32] = tested on: ACHN renal
[33] = tested on: SF-268 CNS
[34] = tested on: OVCAR-8 ovarian
[35] = tested on: HS 578T breast
[36] = tested on: A498 renal
[37] = tested on: SK-MEL-28 melanoma
[38] = tested on: SR leukemia
[39] = tested on: HL-60(TB) leukemia
[40] = tested on: MDA-MB-231 breast
[41] = tested on: OVCAR-3 ovarian
[42] = tested on: SK-OV-3 ovarian
[43] = tested on: SK-MEL-2 melanoma
[44] = tested on: SK-MEL-5 melanoma
[45] = tested on: OVCAR-5 ovarian
[46] = tested on: NCI-H226 lung
[47] = tested on: U251 CNS
[48] = tested on: IGROV1 ovarian
[49] = tested on: UO-31 renal
[50] = tested on: NCI/ADR-RES ovarian
[51] = tested on: SNB-19 CNS
[52] = tested on: LOX IMVI melanoma
[53] = tested on: BT-549 breast
[54] = tested on: NCI-H23 lung
[55] = tested on: DU-145 prostate
[56] = tested on: NCI-H522 lung
[57] = tested on: MALME-3M melanoma
[58] = tested on: NCI-H460 lung

## CCN(CC)CC(=O)Nc1c(C(N)=O)nnn1Cc1cc(Cl)c(C(=O)c2ccc(Cl)cc2)c(Cl)c1
[1]
  TGI: 40400 nM
[2]
  TGI: 50300 nM
[3]
  TGI: 30900 nM
[4]
  TGI: 57400 nM
[5]
  TGI: 32100 nM
[6]
  TGI: 33200 nM
[7]
  TGI: 31400 nM
[8]
  TGI: 32600 nM
[9]
  TGI: 65100 nM
[10]
  TGI: 37200 nM
[11]
  TGI: 34400 nM
[12]
  TGI: 32100 nM
[13]
  TGI: 53200 nM
[14]
  TGI: 38600 nM
[15]
  TGI: 35800 nM
[16]
  TGI: 32900 nM
[17]
  TGI: 56000 nM
[18]
  TGI: 79600 nM
[19]
  TGI: 61900 nM
[20]
  TGI: > 100000 nM
[21]
  TGI: 31400 nM
[22]
  TGI: 37400 nM
[23]
  TGI: 23800 nM
[24]
  TGI: 35400 nM
[25]
  TGI: 77700 nM
[26]
  TGI: 41500 nM
[27]
  TGI: > 100000 nM
[28]
  TGI: 59000 nM
[29]
  TGI: 32400 nM
[30]
  TGI: 38700 nM
[31]
  TGI: 34200 nM
[32]
  TGI: > 100000 nM
[33]
  TGI: 45500 nM
[34]
  TGI: 34700 nM
[35]
  TGI: 33000 nM
[36]
  TGI: > 100000 nM
[37]
  TGI: 33300 nM
[38]
  TGI: 68900 nM
[39]
  TGI: 39500 nM
[40]
  TGI: 34800 nM
[41]
  TGI: 31700 nM
[42]
  TGI: 51500 nM
[43]
  TGI: 28400 nM
[44]
  TGI: 30400 nM
[45]
  TGI: 40700 nM
[46]
  TGI: 30400 nM
[47]
  TGI: 41100 nM
[48]
  TGI: 74400 nM
[49]
  TGI: 31200 nM
[50]
  TGI: 34700 nM
[51]
  TGI: > 100000 nM
[52]
  TGI: 32100 nM
[53]
  TGI: 34600 nM
[54]
  TGI: 37400 nM
[55]
  TGI: 90200 nM
[56]
  TGI: 41300 nM

## CC[C@H](C)[C@H]1NC(=O)[C@@H](N[C@](C)(O)[C@@H](N)CC(C)C)[C@@H](C)OC(=O)[C@H](Cc2ccc(OC)cc2)N(C)C(=O)[C@@H]2CCCN2C(=O)[C@H](CC(C)C)NC(=O)[C@@H](C)C(=O)[C@H](C(C)C)OC(=O)C[C@@H]1O
[1]
  GI50: 16.7 nM
  TGI: 6060 nM
[2]
  GI50: 11.5 nM
  TGI: 316 nM
[3]
  GI50: 21.5 nM
  TGI: 289 nM
[4]
  GI50: 39.7 nM
  TGI: 557 nM
[5]
  GI50: 19.7 nM
  TGI: 361 nM
[6]
  GI50: 10.8 nM
  TGI: 73 nM
[7]
  GI50: 22.5 nM
  TGI: 2940 nM
[8]
  GI50: 40.8 nM
  TGI: 337 nM
[9]
  GI50: 241 nM
  TGI: 2590 nM
[10]
  GI50: 15.1 nM
  TGI: 397 nM
[11]
  GI50: 217 nM
  TGI: 22900 nM
[12]
  GI50: 6.08 nM
  TGI: 50000 nM
[13]
  GI50: 26.2 nM
  TGI: 391 nM
[14]
  GI50: 6.95 nM
  TGI: 702 nM
[15]
  GI50: < 10.8 nM
  TGI: 829 nM
[17]
  GI50: 13.3 nM
  TGI: 575 nM
[57]
  GI50: 11.7 nM
  TGI: 133 nM
[18]
  GI50: 11.5 nM
  TGI: 470 nM
[19]
  GI50: 8.97 nM
  TGI: 301 nM
[21]
  GI50: 16.5 nM
  TGI: 185 nM
[22]
  GI50: 15.6 nM
  TGI: 1800 nM
[23]
  GI50: 19 nM
  TGI: 173 nM
[24]
  GI50: 10.9 nM
  TGI: 160 nM
[25]
  GI50: 34.7 nM
  TGI: 177 nM
[26]
  GI50: 11.3 nM
  TGI: 232 nM
[27]
  GI50: 18.9 nM
  TGI: 365 nM
[28]
  GI50: 21.5 nM
  TGI: 436 nM
[29]
  GI50: 7.35 nM
  TGI: 166 nM
[30]
  GI50: 16.4 nM
  TGI: 208 nM
[31]
  GI50: 14.6 nM
  TGI: 601 nM
[32]
  GI50: 42.8 nM
  TGI: 2670 nM
[33]
  GI50: 13.2 nM
  TGI: 348 nM
[34]
  GI50: 16.1 nM
  TGI: 355 nM
[35]
  GI50: 16.4 nM
  TGI: 467 nM
[36]
  GI50: 37 nM
  TGI: 403 nM
[37]
  GI50: 11.7 nM
  TGI: 95.4 nM
[38]
  GI50: 6.03 nM
  TGI: 42.2 nM
[39]
  GI50: 21.8 nM
  TGI: 281 nM
[40]
  GI50: 26.3 nM
  TGI: 233 nM
[41]
  GI50: 17.8 nM
  TGI: 232 nM
[42]
  GI50: 19.1 nM
  TGI: 1190 nM
[43]
  GI50: 9.72 nM
  TGI: 49.9 nM
[44]
  GI50: 18 nM
  TGI: 665 nM
[45]
  GI50: 20.4 nM
  TGI: 799 nM
[46]
  GI50: 17.5 nM
  TGI: 501 nM
[47]
  GI50: 11.9 nM
  TGI: 188 nM
[48]
  GI50: 13.3 nM
  TGI: 413 nM
[49]
  GI50: 343 nM
  TGI: 3310 nM
[50]
  GI50: 2180 nM
  TGI: 46500 nM
[51]
  GI50: 13.7 nM
  TGI: 461 nM
[52]
  GI50: 12 nM
  TGI: 209 nM
[53]
  GI50: 19.5 nM
  TGI: 406 nM
[58]
  GI50: 11 nM
  TGI: 572 nM
[54]
  GI50: 12.2 nM
  TGI: 146 nM
[55]
  GI50: 9.03 nM
  TGI: 509 nM
[56]
  GI50: 11.4 nM
  TGI: 143 nM
